# Columns and labels:
# [1] = tested on: phenyl-para-quinone writhing; assay: phenyl-para-quinone writhing assay in mice (analgesia); assay type: in vivo
# Source text: The compounds of the present invention are useful as analgesic agents. […] Exptl. Biol. Med., 95, 729 (1957)].
# [2] = tested on: Scopolamine Induced Memory Deficit; assay: Dark Avoidance Assay (reversal of scopolamine induced memory deficit); assay type: in vivo; conditions: mice
# Procedure: In this assay, mice are tested for their ability to remember an unpleasant stimulus for a period of 24 hours. A mouse is placed in a chamber that contains a dark compartment; a strong incandescent light drives it to the dark compartment, where an electric shock is administered through metal plates on the floor. The animal is removed from the testing apparatus and tested again, 24 hours later, for the ability to remember the electric shock.
# [3] = tested on: ear edema induced by topical application of TPA; assay: TPA-Induced Ear Edema (TPAEE); assay type: in vivo, Female Swiss Webster mice; conditions: for TPAEE (change in TPA-induced ear edema): 10 μg/ear topical, TPA 10 μg/ear, five hours
# Procedure: The purpose of this assay was to determine the ability of a topically-applied compound to prevent ear edema induced by topical application of TPA (phorbol 12-myristate acetate). Female Swiss Webster mice topically received TPA (10 μg/ear) on the right ear and vehicle on the left ear. The test compound (10 μg/ear) was applied to both ears. After five hours, the animals were sacrificed and an ear punch (4 mm) was taken from each ear. The difference in right and left ear punch weights for each animal was determined to assess activity. […] See Young, J. M. et al., J. Invest. Dermatol., 80 (1983), pp. 48-52.
structure (smiles),measurement,setting,value
"CCC(=O)O[C@](Cc1ccccc1)(c1ccccc1)[C@H](C)CN(C)C [Propoxyphene, reference compound]",% Inhibition of Writhing,"[1]; 3.9 mg/kg of body wt. s.c., mice (standard)",50%
"CC(C)(C)C(=O)Nc1ccncc1-c1noc2ccccc12 [N-[3-(1,2-Benzisoxazol-3-yl)-4-pyridinyl]-2,2-dimethylpropanamide]",% of Animals with Scopolamine Induced Memory Deficit Reversal,"[2]; 3.0 mg/kg s.c., 24 hours",20%
same,TPAEE (change in TPA-induced ear edema),[3],-23%
"CNC(=O)Oc1ccc2c(c1)[C@]1(C)CCN(C)[C@@H]1N2C [Physostigmine, reference compound]",% of Animals with Scopolamine Induced Memory Deficit Reversal,"[2]; 0.31 mg/kg s.c., 24 hours (reference)",20%
"C[C@]12CCC(=O)C=C1CC[C@@H]1[C@@H]2[C@@H](O)C[C@@]2(C)[C@H]1CC[C@]2(O)C(=O)CO [hydrocortisone, reference compound]",ED50 (TPA-induced ear edema),"[3]; standard, topical, mice",47 μg/ear
"Nc1ccncc1-c1noc2ccccc12.O=C(O)/C=C\C(=O)O [3-(1,2-Benzisoxazol-3-yl)-4-pyridinamine maleate]",% Inhibition of Writhing,"[1]; 20 mg/kg of body wt. s.c., mice",40%
same,% of Animals with Scopolamine Induced Memory Deficit Reversal,"[2]; 1.0 mg/kg s.c., 24 hours",21%
same,% of Animals with Scopolamine Induced Memory Deficit Reversal,"[2]; 10.0 mg/kg s.c., 24 hours",33%
same,TPAEE (change in TPA-induced ear edema),[3],-29%

# — patent publication US5055476A, “3-(1,2-benzisoxazol-3-yl)-4-pyridinamines and derivatives” (Hoechst-Roussel Pharmaceuticals Incorporated, priority 1990, dated 1991)
